Results reported in ChEMBL document CHEMBL5223082, “Alkyl-Aryl-Vancomycins: Multimodal Glycopeptides with Weak Dependence on the Bacterial Metabolic State” (J Med Chem, 2021).
Active and inactive are the calls of the source. No cut-off for these calls is given here.

Key:
Staphylococcus aureus [1] = assay: Antibacterial activity against Vancomycin-resistant Staphylococcus aureus 1 assessed as inhibition of bacterial growth incubated for 18 to 24 hrs by CLSI microbroth dilution method; assay type: functional; conditions: time 18-24 hrs
Enterococcus [2] = assay: Antibacterial activity against Vancomycin-resistant Enterococci NR30909 assessed as inhibition of bacterial growth incubated for 18 to 24 hrs by CLSI microbroth dilution method; assay type: functional; conditions: time 18-24 hrs
Enterococcus [3] = assay: Antibacterial activity against Vancomycin-resistant Enterococci ATCC 51559 assessed as inhibition of bacterial growth incubated for 18 to 24 hrs by CLSI microbroth dilution method; assay type: functional; conditions: time 18-24 hrs
Staphylococcus aureus [4] = assay: Potency index, ratio of Vancomycin MIC to test compound MIC for antibacterial activity against Vancomycin-resistant Staphylococcus aureus 1; assay type: functional
Enterococcus [5] = assay: Potency index, ratio of Vancomycin MIC to test compound MIC for antibacterial activity against Vancomycin-resistant Enterococci NR30909; assay type: functional, NR 30909
Enterococcus [6] = assay: Potency index, ratio of Vancomycin MIC to test compound MIC for antibacterial activity against Vancomycin-resistant Enterococci ATCC 51559; assay type: functional
[7] = Induction of hemolysis in human erythrocytes incubated for 1 hr by microtiter plater reader analysis; assay type: toxicity, cell-based, Erythrocyte
HEK293 = assay: Cytotoxicity against human HEK293 cells at 30 uM incubated for 24 hrs by calceinAM/PI staining based fluorescence microscopy; assay type: toxicity, cell-based; conditions: hek293, 24 h
Staphylococcus aureus [8] = assay: Bactericidal activity against methicillin-resistant Staphylococcus aureus ATCC 33591 incubated for 24 hrs in broth solution followed by culturing for 24 hrs on agar plate by spot plating method; assay type: functional; conditions: time 48 hrs
Staphylococcus aureus [9] = assay: Bactericidal activity against methicillin-resistant Staphylococcus aureus ATCC 33591 assessed as log reduction in bacterial colonies incubated for 2 hrs in broth solution followed by culturing for 24 hrs on agar plate by spot plating method; assay type: functional; conditions: time 26 hrs
Staphylococcus aureus [10] = assay: Bactericidal activity against methicillin-resistant Staphylococcus aureus ATCC 33591 assessed as log reduction in bacterial colonies at 2XMIC incubated for 24 hrs in broth solution followed by culturing for 24 hrs on agar plate by spot plating method; assay type: functional; conditions: time 48 hrs
Enterococcus [11] = assay: Bactericidal activity against Vancomycin-resistant Enterococci assessed as reduction in bacterial colonies at MIC to 2XMIC incubated for 6 hrs in broth solution followed by culturing for 24 hrs on agar plate by spot plating method; assay type: functional, organism-based; conditions: time 30.0 hrs
Enterococcus [12] = assay: Bactericidal activity against Vancomycin-resistant Enterococci assessed as log reduction in bacterial colonies at 4XMIC incubated for 24 hrs in broth solution followed by culturing for 24 hrs on agar plate by spot plating method; assay type: functional; conditions: time 48 hrs
Cell membrane [13] = assay: Induction of cytoplasmic membrane depolarization in Bacillus subtilis assessed as increase in fluorescence intensity at 10 uM measured for 35 to 40 mins by DiSC3(5) dye based fluorescence analysis; assay type: subcellular; conditions: time 35-40 min
Cell membrane [14] = assay: Induction of cytoplasmic membrane depolarization in Vancomycin-resistant Enterococci assessed as increase in fluorescence intensity at 10 uM measured for 35 to 40 mins by DiSC3(5) dye based fluorescence analysis; assay type: subcellular; conditions: Enterococcus, time 35-40 min
Cell membrane [15] = assay: Induction of cytoplasmic membrane permeabilization in Bacillus subtilis assessed as increase in fluorescence intensity at 10 uM measured for 30 to 40 mins by Propidium iodide staining based fluorescence analysis; assay type: subcellular; conditions: time 30-40 min
Cell membrane [16] = assay: Induction of cytoplasmic membrane permeabilization in Vancomycin-resistant Enterococci assessed as increase in fluorescence intensity at 10 uM measured for 30 to 40 mins by Propidium iodide staining based fluorescence analysis; assay type: subcellular; conditions: Enterococcus, time 30-40 min
Bacillus subtilis = assay: Antibacterial activity against Bacillus subtilis 168 assessed as inhibition of bacterial growth incubated for 18 hrs by turbidity based analysis; assay type: functional
[17] = target: T1, Septum site-determining protein MinD (Bacillus subtilis (strain 168)) (UniProt Q01464); assay: Delocalization of GFP tagged-MinD in Bacillus subtilis 168 at MIC incubated for 15 mins by fluorescence microscopy
T1 sequence (whole entry): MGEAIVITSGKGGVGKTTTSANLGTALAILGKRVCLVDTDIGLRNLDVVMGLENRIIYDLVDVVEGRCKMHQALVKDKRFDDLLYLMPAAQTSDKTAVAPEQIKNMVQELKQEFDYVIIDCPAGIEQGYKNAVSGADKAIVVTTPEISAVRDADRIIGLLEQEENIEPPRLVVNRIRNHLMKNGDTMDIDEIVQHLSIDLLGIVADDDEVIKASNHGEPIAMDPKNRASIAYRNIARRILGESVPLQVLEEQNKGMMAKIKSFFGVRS

Staphylococcus aureus [18] = assay: Antibacterial activity against stationary phase of Methicillin-resistant Staphylococcus aureus ATCC 33591 assessed as log reduction in bacterial colonies at 9 uM incubated for 12 hrs in broth solution followed by incubation on agar plate for 48 hrs by spot plating method; assay type: functional; conditions: time 60 hrs
Staphylococcus aureus [19] = assay: Antibacterial activity against stationary phase of Methicillin-resistant Staphylococcus aureus ATCC 33591 assessed as log reduction in bacterial colonies at 22 uM incubated for 24 hrs in broth solution followed by incubation on agar plate for 48 hrs by spot plating method; assay type: functional; conditions: time 72 hrs
Staphylococcus aureus [20] = assay: Antibacterial activity against Methicillin-resistant Staphylococcus aureus ATCC 33591 persister cells assessed as log reduction in bacterial colonies at 4.5 uM incubated for 24 hrs in broth solution followed by incubation on agar plate for 48 hrs by spot plating method; assay type: functional; conditions: time 72 hrs
Staphylococcus aureus [21] = assay: Antibacterial activity against Methicillin-resistant Staphylococcus aureus ATCC 33591 persister cells assessed as log reduction in bacterial colonies at 9 uM incubated for 2 hrs in broth solution followed by incubation on agar plate for 48 hrs by spot plating method; assay type: functional; conditions: time 50 hrs
Staphylococcus aureus [22] = assay: Antibacterial activity against Methicillin-resistant Staphylococcus aureus ATCC 33591 persister cells assessed as log reduction in bacterial colonies at 9 uM incubated for 24 hrs in broth solution followed by incubation on agar plate for 48 hrs by spot plating method; assay type: functional; conditions: time 72 hrs
Staphylococcus aureus [23] = assay: Antibiofilm activity against Methicillin-resistant Staphylococcus aureus ATCC 33591 assessed as log reduction in bacterial viability within the biofilms at 20 uM incubated for 24 hrs in broth solution followed by culturing on agar plate for 24 hrs by spot plating method; assay type: functional; conditions: time 48 hrs
Staphylococcus aureus [24] = assay: Antibiofilm activity against Methicillin-resistant Staphylococcus aureus ATCC 33591 assessed as bacterial biofilm thickness at 20 uM incubated for 24 hrs by confocal laser scanning microscopy (reference value: 8 micrometer); assay type: functional
Staphylococcus aureus [25] = assay: Antibacterial activity against Methicillin-resistant Staphylococcus aureus ATCC 33591 assessed as time duration of post-antibiotic effect for suppression of bacterial growth at 10XMIC incubated for 1 hr in broth solution followed by washing for drug removal and subsequent plating on nutrient agar plate; assay type: functional
Staphylococcus aureus [26] = assay: Antibacterial activity against Methicillin-resistant Staphylococcus aureus ATCC 33591 assessed as inhibition of bacterial growth incubated for 18 to 24 hrs in presence of 50% human plasma by CLSI microbroth dilution method; assay type: functional; conditions: time 18-24 hrs
[27] = Toxicity in BALB/c mouse assessed as animal's survival rate at 55.5 mg/kg, iv measured for 14 days; assay type: organism-based; conditions: in vivo, time 14 day
[28] = Renal toxicity in mouse assessed as blood urea nitrogen level at 12 mg/kg, ip measured after 48 hrs; assay type: organism-based; conditions: in vivo
Staphylococcus aureus [29] = assay: Antibacterial activity against Methicillin-resistant Staphylococcus aureus ATCC 33591 infected in BALB/c mouse thigh infection model assessed as log reduction in bacterial load at 12 mg/kg, ip starting at 1 hr post-infection and measured at 24 hrs post-drug treatment; assay type: functional

Question: For `CCCCCCCCCCNC(=O)C[N+](C)(C)CCCNC(=O)c1ccc(CN[C@@]2(C)C[C@H](O[C@H]3[C@H](Oc4c5cc6cc4Oc4ccc(cc4Cl)[C@@H](O)[C@@H](NC(=O)[C@@H](CC(C)C)NC)C(=O)N[C@@H](CC(N)=O)C(=O)N[C@H]6C(=O)N[C@H]4C(=O)N[C@H](C(=O)N[C@H](C(=O)O)c6cc(O)cc(O)c6-c6cc4ccc6O)[C@H](O)c4ccc(c(Cl)c4)O5)O[C@H](CO)[C@@H](O)[C@@H]3O)O[C@@H](C)[C@H]2O)cc1`, which MIC (Staphylococcus aureus [1]) is on record?
Answer: Its MIC is 1.8 µM.

Question: And the MIC (Enterococcus [2])?
Answer: Its MIC is 0.9 µM.

Question: What about the MIC (Enterococcus [3]) of the same compound?
Answer: The MIC was 3.6 µM.

Question: What about the Ratio (Staphylococcus aureus [4]) of the same compound?
Answer: The Ratio was 1384.

Question: What about the Ratio (Enterococcus [5]) of the same compound?
Answer: Its Ratio is 1384.

Question: And the Ratio (Enterococcus [6])?
Answer: The Ratio was 1384.

Question: What about the HC50 at 1 h [7] of the same compound?
Answer: Its HC50 at 1 h is greater than 250 µM.

Question: What about the Activity (HEK293) of the same compound?
Answer: Its Activity is “Non-Toxic”.

Question: And the MBC (Staphylococcus aureus [8])?
Answer: The MBC was 0.9 µM.

Question: What about the Activity (Staphylococcus aureus [9]) of the same compound?
Answer: The Activity was 2 log10CFU/ml.

Question: And the Activity (Staphylococcus aureus [10])?
Answer: The Activity was 6 log10CFU/ml.

Question: And the Activity (Enterococcus [11])?
Answer: The Activity was “inactive”.

Question: What about the Activity (Enterococcus [12]) of the same compound?
Answer: Its Activity is 5 log10CFU/ml.

Question: And the Activity (Cell membrane [13])?
Answer: The Activity was “Active”.

Question: What about the Activity (Cell membrane [14]) of the same compound?
Answer: Its Activity is “Active”.

Question: What about the Activity (Cell membrane [15]) of the same compound?
Answer: Its Activity is “Active”.

Question: And the Activity (Cell membrane [16])?
Answer: The Activity was “Active”.

Question: What about the MIC (Bacillus subtilis) of the same compound?
Answer: The MIC was 0.45 µM.

Question: What about the Activity [17] of the same compound?
Answer: The Activity was 25%.

Question: And the Activity (Staphylococcus aureus [18])?
Answer: The Activity was 1.9 log10CFU/ml.

Question: And the Activity (Staphylococcus aureus [19])?
Answer: Its Activity is 7 log10CFU/ml.

Question: And the Activity (Staphylococcus aureus [20])?
Answer: The Activity was 3.3 log10CFU/ml.

Question: What about the Activity (Staphylococcus aureus [21]) of the same compound?
Answer: The Activity was 2 log10CFU/ml.

Question: And the Activity (Staphylococcus aureus [22])?
Answer: Its Activity is 6 log10CFU/ml.

Question: And the Activity (Staphylococcus aureus [23])?
Answer: Its Activity is 2.2 log10CFU/ml.

Question: What about the Activity (Staphylococcus aureus [24]) of the same compound?
Answer: Its Activity is 3.5 um.

Question: And the Time (Staphylococcus aureus [25])?
Answer: Its Time is 23 h.

Question: And the MIC (Staphylococcus aureus [26])?
Answer: The MIC was 0.9 µM.

Question: What about the survival at 336 h [27] of the same compound?
Answer: The survival at 336 h was 100%.

Question: And the Activity [28]?
Answer: Its Activity is 20.7 mg/dL.

Question: And the Activity (Staphylococcus aureus [29])?
Answer: The Activity was 2.8 log10CFU/g.
